# Data taken from the supplement of paper PMC11451515.
# What was measured:
# SEM cells [1] = test: AUC of viability dose-response curve (% viability x log10 dose units); higher = less sensitive; settings: 48 h
# Summary of the method: (§1)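 Leukemia cells adapted to each medium were seeded in 1536-well plates (500 or 1000 cells/well). They were dosed with library compounds in DMSO at 11 threefold doses, 47 μM to 0.79 nM, for 48 h at 37°C. CellTiter-Glo One luminescence was normalised per plate to DMSO and cell-free wells. Area under the curve was integrated by trapezoidal rule over log10 doses on a four-parameter log-logistic fit; curves exceeding full viability were scaled and curves failing quality control removed.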
# NOMO1 = test: as above; settings: 48 h
# Summary of the method: as §1
# P12-Ichikawa [2] = test: as above; settings: 48 h
# Summary of the method: as §1
# SEM cells [3] = test: cell viability relative to DMSO control; higher = less cytotoxic; settings: 48 h
# Summary of the method: (§2)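 Leukemia cells (NOMO1 or SEM, 500 cells/well; P12-Ichikawa, 1000 cells/well) were seeded in 5 μl in 1536-well plates after at least four passages of adaptation to each medium. They received library compounds in DMSO by pin dosing, 11 threefold points from 47 μM to 0.79 nM. Luminescence with CellTiter-Glo One was read after 48 h at 37°C. Viability is stated per plate relative to DMSO wells, with cell-free wells as background.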
# P12-Ichikawa [4] = test: as above; settings: HPLM + 10% dialyzed FBS, 48 h
# Summary of the method: as §2
# [5] = RPMI 5 mM glucose + 10% dialyzed FBS
# [6] = HPLM + 10% dialyzed FBS, 0.000781 µM
# [7] = HPLM + 10% dialyzed FBS, 0.00234 µM
# [8] = HPLM + 10% dialyzed FBS, 0.00702 µM
# [9] = HPLM + 10% dialyzed FBS, 0.0211 µM
# [10] = HPLM + 10% dialyzed FBS, 0.0632 µM
# [11] = HPLM + 10% dialyzed FBS, 0.19 µM
# [12] = HPLM + 10% dialyzed FBS, 0.569 µM
# [13] = HPLM + 10% dialyzed FBS, 1.71 µM
# [14] = HPLM + 10% dialyzed FBS, 5.12 µM
# [15] = HPLM + 10% dialyzed FBS, 15.4 µM
# [16] = HPLM + 10% dialyzed FBS, 46.1 µM
# [17] = RPMI 5 mM glucose + 10% FBS, 0.000781 µM
# [18] = RPMI 5 mM glucose + 10% FBS, 0.00234 µM
# [19] = RPMI 5 mM glucose + 10% FBS, 0.00702 µM
# [20] = RPMI 5 mM glucose + 10% FBS, 0.0211 µM
# [21] = RPMI 5 mM glucose + 10% FBS, 0.0632 µM
# [22] = RPMI 5 mM glucose + 10% FBS, 0.19 µM
# [23] = RPMI 5 mM glucose + 10% FBS, 0.569 µM
# [24] = RPMI 5 mM glucose + 10% FBS, 1.71 µM
# [25] = RPMI 5 mM glucose + 10% FBS, 5.12 µM
# [26] = RPMI 5 mM glucose + 10% FBS, 15.4 µM
# [27] = RPMI 5 mM glucose + 10% FBS, 46.1 µM
Compound,AUC of viability dose-response curve (SEM cells [1]; HPLM + 10% dialyzed FBS),AUC of viability dose-response curve (SEM cells [1]; RPMI 5 mM glucose + 10% FBS),AUC of viability dose-response curve (SEM cells [1]; [5]),AUC of viability dose-response curve (NOMO1; HPLM + 10% dialyzed FBS),AUC of viability dose-response curve (NOMO1; RPMI 5 mM glucose + 10% FBS),AUC of viability dose-response curve (NOMO1; [5]),AUC of viability dose-response curve (P12-Ichikawa [2]; HPLM + 10% dialyzed FBS),AUC of viability dose-response curve (P12-Ichikawa [2]; RPMI 5 mM glucose + 10% FBS),AUC of viability dose-response curve (P12-Ichikawa [2]; [5]),cell viability (SEM cells [3]; [6]),cell viability (SEM cells [3]; [7]),cell viability (SEM cells [3]; [8]),cell viability (SEM cells [3]; [9]),cell viability (SEM cells [3]; [10]),cell viability (SEM cells [3]; [11]),cell viability (SEM cells [3]; [12]),cell viability (SEM cells [3]; [13]),cell viability (SEM cells [3]; [14]),cell viability (SEM cells [3]; [15]),cell viability (SEM cells [3]; [16]),also measured
O=c1cc(-c2ccc(O)c(O)c2)oc2cc(O)cc(O)c12,449,454,459,458,461,461,473,464,467,107%,113%,126%,127%,134%,134%,142%,152%,156%,129%,129%,–
C[N]1N=C(C)C2=C1OC(=C(/C#N)C2C3=CC=C(C=C3)C(F)(F)F)/N (centres undefined),467,438,439,–,–,–,457,467,454,–,–,–,–,–,–,–,–,–,–,–,–
Cc1cc(Nc2cc(N3CCN(C)CC3)nc(Sc3ccc(NC(=O)C4CC4)cc3)n2)[nH]n1,304,286,286,389,390,376,298,302,315,–,–,–,–,–,–,–,–,–,–,–,–
COc1nc(C)cnc1N[S+](=O)([O-])c1cccnc1-c1ccc(-c2nnco2)cc1,471,452,460,465,455,474,–,–,–,–,–,–,–,–,–,–,–,–,–,–,–
CCN[C@H]1C[C@H](C)[S+](=O)([O-])c2sc([S+](N)(=O)[O-])cc21,–,–,–,434,452,415,460,440,471,137%,100%,120%,126%,36.4%,129%,135%,126%,52.8%,131%,118%,–
c1nc2c(NC3CCCCC3)nc(Nc3ccc(N4CCOCC4)cc3)nc2[nH]1,386,364,363,403,399,405,377,364,384,121%,118%,114%,120%,131%,116%,120%,112%,36.8%,28.4%,29.3%,cell viability (SEM cells [3]; [17]): 110%; cell viability (SEM cells [3]; [18]): 113%; cell viability (SEM cells [3]; [19]): 132%; cell viability (SEM cells [3]; [20]): 121%; cell viability (SEM cells [3]; [21]): 120%; cell viability (SEM cells [3]; [22]): 131%; cell viability (SEM cells [3]; [23]): 111%; cell viability (SEM cells [3]; [24]): 95.9%; cell viability (SEM cells [3]; [25]): 20.5%; cell viability (SEM cells [3]; [26]): 13.7%; cell viability (SEM cells [3]; [27]): 14.4%
C=CC(=O)Nc1cc(NC(=O)c2ccc(C)c(NC(=O)c3ccno3)c2)cc(C(F)(F)F)c1,423,451,438,431,457,467,459,454,452,–,–,–,–,–,–,–,–,–,–,–,–
OC1=CC=C(C=C1)\C2=C(O)\C(=O)C3=C(O2)C=C(O)C=C3O,466,469,470,443,458,466,465,437,449,–,–,–,–,–,–,–,–,–,–,–,cell viability (SEM cells [3]; [17]): 119%; cell viability (SEM cells [3]; [18]): 100%; cell viability (SEM cells [3]; [19]): 116%; cell viability (SEM cells [3]; [20]): 127%; cell viability (SEM cells [3]; [21]): 127%; cell viability (SEM cells [3]; [22]): 133%; cell viability (SEM cells [3]; [23]): 135%; cell viability (SEM cells [3]; [24]): 128%; cell viability (SEM cells [3]; [25]): 127%; cell viability (SEM cells [3]; [26]): 123%; cell viability (SEM cells [3]; [27]): 87.2%
CCCN1CCO[C@@H]2c3cc(O)ccc3OC[C@H]21,406,424,433,451,456,456,448,446,441,120%,123%,135%,112%,122%,118%,105%,103%,68.4%,99.7%,48.1%,cell viability (P12-Ichikawa [4]; 0.000781 µM): 125%; cell viability (P12-Ichikawa [4]; 0.00234 µM): 123%; cell viability (P12-Ichikawa [4]; 0.00702 µM): 128%; cell viability (P12-Ichikawa [4]; 0.0211 µM): 120%; cell viability (P12-Ichikawa [4]; 0.0632 µM): 120%; cell viability (P12-Ichikawa [4]; 0.19 µM): 118%; cell viability (P12-Ichikawa [4]; 0.569 µM): 113%; cell viability (P12-Ichikawa [4]; 1.71 µM): 114%; cell viability (P12-Ichikawa [4]; 5.12 µM): 114%; cell viability (P12-Ichikawa [4]; 15.4 µM): 101%; cell viability (P12-Ichikawa [4]; 46.1 µM): 12.1%
